What was measured:
[1] = molecular target: T1, Alpha-2C adrenergic receptor (Homo sapiens, UniProt P18825); assay type: functional
T1 sequence (P18825 whole entry): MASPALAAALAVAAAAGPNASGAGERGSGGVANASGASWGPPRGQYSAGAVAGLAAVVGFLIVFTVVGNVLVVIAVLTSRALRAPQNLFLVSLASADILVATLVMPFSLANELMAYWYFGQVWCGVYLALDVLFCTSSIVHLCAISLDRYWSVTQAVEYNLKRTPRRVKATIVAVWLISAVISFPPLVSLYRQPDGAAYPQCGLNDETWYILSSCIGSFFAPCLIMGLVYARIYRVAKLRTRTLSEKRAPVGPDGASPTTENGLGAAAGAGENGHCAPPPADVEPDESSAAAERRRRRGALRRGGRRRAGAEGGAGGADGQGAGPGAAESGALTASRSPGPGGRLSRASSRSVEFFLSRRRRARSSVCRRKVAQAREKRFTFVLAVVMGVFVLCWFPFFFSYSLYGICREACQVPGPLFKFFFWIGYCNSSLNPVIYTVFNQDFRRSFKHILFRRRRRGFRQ

[2] = molecular target: T2, Type-1 angiotensin II receptor (Homo sapiens, UniProt P30556)
T2 sequence (P30556 whole entry): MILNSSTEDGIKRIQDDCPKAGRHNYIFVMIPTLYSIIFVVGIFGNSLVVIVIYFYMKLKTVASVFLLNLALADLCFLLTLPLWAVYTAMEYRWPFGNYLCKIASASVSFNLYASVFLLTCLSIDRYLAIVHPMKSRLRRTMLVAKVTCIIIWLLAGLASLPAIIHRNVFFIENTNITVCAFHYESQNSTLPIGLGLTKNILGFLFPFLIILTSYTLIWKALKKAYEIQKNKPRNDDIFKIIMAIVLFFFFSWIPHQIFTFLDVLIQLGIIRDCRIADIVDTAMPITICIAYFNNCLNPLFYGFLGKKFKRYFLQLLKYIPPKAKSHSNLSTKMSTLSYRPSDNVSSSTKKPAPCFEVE

[3] = molecular target: Cannabinoid receptor 1 (Homo sapiens, UniProt P21554); assay type: functional, cell-based
[4] = molecular target: Growth hormone secretagogue receptor type 1 (Homo sapiens, UniProt Q92847)
[5] = molecular target: T3, Prostaglandin G/H synthase 1 (Rattus norvegicus, UniProt Q63921); assay type: functional
T3 sequence (Q63921 whole entry): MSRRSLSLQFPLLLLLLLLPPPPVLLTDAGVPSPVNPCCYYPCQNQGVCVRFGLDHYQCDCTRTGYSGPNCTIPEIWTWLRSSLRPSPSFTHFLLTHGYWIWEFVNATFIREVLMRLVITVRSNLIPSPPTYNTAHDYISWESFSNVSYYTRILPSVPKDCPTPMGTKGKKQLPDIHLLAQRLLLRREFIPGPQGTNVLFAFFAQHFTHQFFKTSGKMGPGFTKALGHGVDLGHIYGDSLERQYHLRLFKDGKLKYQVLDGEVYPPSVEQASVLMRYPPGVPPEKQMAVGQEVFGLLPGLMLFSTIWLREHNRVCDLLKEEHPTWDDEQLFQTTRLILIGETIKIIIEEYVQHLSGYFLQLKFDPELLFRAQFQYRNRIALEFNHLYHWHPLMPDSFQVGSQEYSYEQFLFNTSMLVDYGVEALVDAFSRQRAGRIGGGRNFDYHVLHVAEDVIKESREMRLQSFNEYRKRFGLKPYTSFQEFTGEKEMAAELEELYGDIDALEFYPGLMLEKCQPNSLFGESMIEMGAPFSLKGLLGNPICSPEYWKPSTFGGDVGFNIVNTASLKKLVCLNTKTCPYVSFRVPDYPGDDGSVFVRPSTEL

[6] = molecular target: T4, Muscarinic acetylcholine receptor M1 (Homo sapiens, UniProt P11229); assay type: functional, cell-based
T4 sequence (P11229 whole entry): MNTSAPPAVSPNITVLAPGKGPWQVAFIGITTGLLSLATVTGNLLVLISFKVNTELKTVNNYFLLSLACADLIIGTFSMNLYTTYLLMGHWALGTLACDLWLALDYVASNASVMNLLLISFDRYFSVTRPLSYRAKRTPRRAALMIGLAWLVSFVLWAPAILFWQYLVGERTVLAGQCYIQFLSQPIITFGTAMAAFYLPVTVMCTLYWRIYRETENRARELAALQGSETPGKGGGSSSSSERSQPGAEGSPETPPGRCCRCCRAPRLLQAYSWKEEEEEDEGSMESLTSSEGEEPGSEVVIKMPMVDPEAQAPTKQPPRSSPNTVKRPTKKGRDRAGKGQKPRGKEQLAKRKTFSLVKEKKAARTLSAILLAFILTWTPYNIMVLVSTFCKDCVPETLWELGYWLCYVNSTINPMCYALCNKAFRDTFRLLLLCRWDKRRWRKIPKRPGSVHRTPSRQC
Note: assay procedure not described here.

Sequence of Growth hormone secretagogue receptor type 1 (Q92847 whole entry): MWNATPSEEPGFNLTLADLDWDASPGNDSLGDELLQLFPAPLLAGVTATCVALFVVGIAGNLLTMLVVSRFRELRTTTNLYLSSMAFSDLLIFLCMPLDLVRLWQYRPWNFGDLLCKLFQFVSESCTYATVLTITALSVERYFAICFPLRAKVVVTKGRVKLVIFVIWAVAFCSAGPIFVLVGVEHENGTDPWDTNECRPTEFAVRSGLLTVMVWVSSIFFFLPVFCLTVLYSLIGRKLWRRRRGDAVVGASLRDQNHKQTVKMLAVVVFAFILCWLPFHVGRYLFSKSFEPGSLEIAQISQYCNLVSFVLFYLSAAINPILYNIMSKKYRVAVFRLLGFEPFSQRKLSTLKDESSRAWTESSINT
Sequence of Cannabinoid receptor 1 (P21554 whole entry): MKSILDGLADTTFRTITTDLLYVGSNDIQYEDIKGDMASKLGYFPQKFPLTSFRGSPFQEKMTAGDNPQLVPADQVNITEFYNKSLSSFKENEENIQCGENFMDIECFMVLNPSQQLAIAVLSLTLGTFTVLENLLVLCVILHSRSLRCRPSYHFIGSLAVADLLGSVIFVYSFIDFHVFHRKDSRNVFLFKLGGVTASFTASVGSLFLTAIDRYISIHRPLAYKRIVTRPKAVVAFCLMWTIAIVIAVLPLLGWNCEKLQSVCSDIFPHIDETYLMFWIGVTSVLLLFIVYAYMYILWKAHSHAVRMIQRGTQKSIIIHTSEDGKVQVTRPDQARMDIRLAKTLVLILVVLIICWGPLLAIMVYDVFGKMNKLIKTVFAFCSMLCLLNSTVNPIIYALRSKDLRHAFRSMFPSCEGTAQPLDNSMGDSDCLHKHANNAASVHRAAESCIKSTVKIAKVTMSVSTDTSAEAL

AC50 [1] [µM] | AC50 [2] [µM] | AC50 [3] [µM] | AC50 [4] [µM] | AC50 [5] [µM] | SMILES | AC50 [6] [µM]
> 30 | 0.0005 | > 30 | > 30 | > 30 | CCOc1nc2cccc(C(=O)O)c2n1Cc1ccc(-c2ccccc2-c2nnn[nH]2)cc1 | 
 |  |  |  |  | CC(=O)NCCCCCC(=O)O [ACEXAMIC ACID] | > 30
> 30 | > 30 | > 30 | > 30 | > 30 | CC(=O)Nc1ccc(CC(=O)O)cc1 [ACTARIT] | 
> 30 | > 30 | > 30 | > 30 |  | CC(C(=O)O)c1ccc2oc(-c3ccc(Cl)cc3)nc2c1 (stereo unspecified) [BENOXAPROFEN] | 
> 30 | > 30 | > 30 | > 30 | > 30 | CC1(C)S[C@@H]2[C@H](NC(=O)C(C(=O)O)c3ccccc3)C(=O)N2[C@H]1C(=O)O (stereo partly specified) [CARBENICILLIN] | 
> 30 | > 30 |  | > 30 | 13.7 | CC=CC1=C(C(=O)O)N2C(=O)[C@@H](NC(=O)[C@H](N)c3ccc(O)cc3)[C@H]2SC1 [CEFPROZIL] | 
> 10 | > 30 | > 30 | > 30 | > 30 | CCCNC(=O)NS(=O)(=O)c1ccc(Cl)cc1 [CHLORPROPAMIDE] | 
> 30 | > 30 | > 30 | > 30 | > 30 | CCC(=O)O[C@]1(C(=O)CCl)[C@@H](C)C[C@H]2[C@@H]3CCC4=CC(=O)C=C[C@]4(C)[C@@]3(F)[C@@H](O)C[C@@]21C [CLOBETASOL PROPIONATE] | 
19 | > 30 | > 30 | > 30 | > 30 | Cc1nc(Nc2ncc(C(=O)Nc3c(C)cccc3Cl)s2)cc(N2CCN(CCO)CC2)n1 [DASATINIB] | 
> 30 | > 30 | > 30 | > 30 |  | CC(C)Cc1ccc([C@H](C)C(=O)O)cc1 [DEXIBUPROFEN] | 
 |  |  |  |  | CC[C@H]1OC(=O)[C@H](C)[C@@H](O[C@H]2C[C@@](C)(OC)[C@@H](O)[C@H](C)O2)[C@H](C)[C@@H](O[C@@H]2O[C@H](C)C[C@H](N(C)C)[C@H]2O)[C@](C)(O)C[C@@H](C)[C@@H]2N[C@@H](COCCOC)O[C@H]([C@H]2C)[C@]1(C)O [DIRITHROMYCIN] | > 30
 |  |  |  |  | CCCCc1oc2ccc(NS(C)(=O)=O)cc2c1C(=O)c1ccc(OCCCN(CCCC)CCCC)cc1 [DRONEDARONE] | 7.76

SMILES | AC50 [1] [µM] | AC50 [2] [µM] | AC50 [3] [µM] | AC50 [4] [µM] | AC50 [5] [µM] | AC50 [6] [µM]
CCCc1nc2c(C)cc(-c3nc4ccccc4n3C)cc2n1Cc1ccc(-c2ccccc2C(=O)O)cc1 | 12.5 |  | > 30 | > 30 | > 30 | 
CCOc1cc([C@@H](CS(C)(=O)=O)N2C(=O)c3cccc(NC(C)=O)c3C2=O)ccc1OC | > 30 | > 30 | > 30 | > 30 | > 30 | 
Cc1nnc(SCC2=C(C(=O)O)N3C(=O)[C@@H](NC(=O)Cn4cnnn4)[C@H]3SC2)s1 [CEFAZOLIN] | > 300 | > 300 | > 300 | > 300 | 160 | 
CC(C)(O/N=C(\C(=O)N[C@@H]1C(=O)N2C(C(=O)[O-])=C(C[n+]3ccccc3)CS[C@H]12)c1csc(N)n1)C(=O)O [CEFTAZIDIME] | > 300 | > 300 | > 300 | > 300 | > 300 | 
Cc1cc(C2CCCCC2)n(O)c(=O)c1 [CICLOPIROX] | > 30 |  |  |  | > 3 | 
Clc1ccc(Cn2c(CN3CCCC3)nc3ccccc32)cc1 [CLEMIZOLE] | > 30 | > 30 | > 30 | > 30 | > 30 | 

Reference: ChEMBL document CHEMBL5291721, “A preclinical secondary pharmacology resource illuminates target-adverse drug reaction associations of marketed drugs” (Nat Commun, 2023)
